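How tested: cells in 96-well plates exposed to compound for 48 hours at five concentrations. GI50 marks 50% less growth.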 The source made the active and inactive calls. Rule as the data show it: active = GI50 up to about 1.1 µM and inactive = higher.
Tests used:
Experiment in all cases: NCI-60 cell line screen, 48 h
K562 = tested on: K562
CAKI-1 = tested on: CAKI-1
SF-539 = tested on: SF-539
U-251 = tested on: U-251
HT-29 = tested on: HT-29
HCT-116 = tested on: HCT-116
M14 = tested on: M14
OVCAR-8 = tested on: OVCAR-8
SNB-75 = tested on: SNB-75
A498 = tested on: A498
SF-295 = tested on: SF-295
UACC-62 = tested on: UACC-62
SNB-19 = tested on: SNB-19
HCC 2998 = tested on: HCC 2998
DU-145 = tested on: DU-145
LOX IMVI = tested on: LOX IMVI
SR = tested on: SR
MOLT-4 = tested on: MOLT-4
UACC-257 = tested on: UACC-257
HCT-15 = tested on: HCT-15
HOP-62 = tested on: HOP-62
IGROV-1 = tested on: IGROV-1
A549 = tested on: A549
OVCAR-5 = tested on: OVCAR-5
BT-549 = tested on: BT-549
UO-31 = tested on: UO-31
SW-620 = tested on: SW-620
SK-OV-3 = tested on: SK-OV-3
PC-3 = tested on: PC-3
SK-MEL-28 = tested on: SK-MEL-28
SK-MEL-2 = tested on: SK-MEL-2
CCRF-CEM = tested on: CCRF-CEM
MDA-MB-435 = tested on: MDA-MB-435
ACHN = tested on: ACHN
MDA-MB-231 = tested on: MDA-MB-231
NCI-H460 = tested on: NCI-H460
SF-268 = tested on: SF-268
OVCAR-3 = tested on: OVCAR-3
RPMI-8226 = tested on: RPMI-8226
Hs-578T = tested on: Hs-578T
RXF 393 = tested on: RXF 393
HL-60 = tested on: HL-60
MDA-N = tested on: MDA-N
Malme-3M = tested on: Malme-3M
KM12 = tested on: KM12
NCI-H226 = tested on: NCI-H226
MCF7 = tested on: MCF7
SN12C = tested on: SN12C
T47D = tested on: T47D
TK-10 = tested on: TK-10
NCI-H522 = tested on: NCI-H522
COLO 205 = tested on: COLO 205
NCI/ADR-RES = tested on: NCI/ADR-RES
SK-MEL-5 = tested on: SK-MEL-5
786-0 = tested on: 786-0
NCI-H23 = tested on: NCI-H23
EKVX = tested on: EKVX
OVCAR-4 = tested on: OVCAR-4
HOP-92 = tested on: HOP-92

Measured: GI50

O=C(CCc1ccccc1)n1cccc1CO
> 100 µM: HCT-15
inactive: K562 > 100 µM | CAKI-1 > 100 µM | SF-539 > 100 µM | U-251 > 100 µM | HT-29 > 100 µM | HCT-116 > 100 µM | M14 > 100 µM | OVCAR-8 > 100 µM | SNB-75 > 100 µM | A498 > 100 µM | SF-295 > 100 µM | UACC-62 > 100 µM | SNB-19 > 100 µM | HCC 2998 > 100 µM | DU-145 > 100 µM | LOX IMVI > 100 µM | SR > 100 µM | MOLT-4 > 100 µM | UACC-257 > 100 µM | HOP-62 > 100 µM | IGROV-1 > 100 µM | A549 > 100 µM | OVCAR-5 > 100 µM | BT-549 > 100 µM | UO-31 > 100 µM | SW-620 > 100 µM | SK-OV-3 > 100 µM | PC-3 > 100 µM | SK-MEL-28 > 100 µM | SK-MEL-2 > 100 µM | CCRF-CEM > 100 µM | MDA-MB-435 > 100 µM | ACHN > 100 µM | MDA-MB-231 > 100 µM | NCI-H460 > 100 µM | SF-268 > 100 µM | OVCAR-3 > 100 µM | RPMI-8226 > 100 µM | Hs-578T 60.3 µM | RXF 393 93.3 µM | HL-60 > 100 µM | MDA-N > 100 µM | Malme-3M > 100 µM | KM12 > 100 µM | NCI-H226 > 100 µM | MCF7 > 100 µM | SN12C > 100 µM | T47D 96.4 µM | TK-10 > 100 µM | NCI-H522 > 100 µM | COLO 205 > 100 µM | NCI/ADR-RES > 100 µM | SK-MEL-5 > 100 µM | 786-0 > 100 µM | NCI-H23 > 100 µM | EKVX > 100 µM | OVCAR-4 > 100 µM

CC1(c2nc3cc(Cl)c(Cl)cc3[nH]2)CCC(C(=O)O)C(C)(C)O1 (stereo not given)
inactive: K562 > 100 µM | CAKI-1 > 100 µM | SF-539 > 100 µM | U-251 > 100 µM | HT-29 > 100 µM | HCT-116 > 100 µM | M14 > 100 µM | OVCAR-8 > 100 µM | SNB-75 > 100 µM | SF-295 > 100 µM | UACC-62 > 100 µM | SNB-19 > 100 µM | HCC 2998 > 100 µM | DU-145 > 100 µM | LOX IMVI > 100 µM | SR > 100 µM | MOLT-4 > 100 µM | UACC-257 > 100 µM | HOP-62 > 100 µM | IGROV-1 > 100 µM | A549 > 100 µM | OVCAR-5 > 100 µM | BT-549 > 100 µM | UO-31 34.8 µM | SW-620 > 100 µM | SK-OV-3 > 100 µM | PC-3 > 100 µM | SK-MEL-28 > 100 µM | SK-MEL-2 > 100 µM | CCRF-CEM > 100 µM | MDA-MB-435 > 100 µM | ACHN > 100 µM | MDA-MB-231 > 100 µM | SF-268 > 100 µM | OVCAR-3 > 100 µM | RPMI-8226 > 100 µM | Hs-578T > 100 µM | RXF 393 > 100 µM | HL-60 > 100 µM | MDA-N > 100 µM | Malme-3M > 100 µM | KM12 > 100 µM | NCI-H226 > 100 µM | MCF7 > 100 µM | SN12C > 100 µM | T47D > 100 µM | HOP-92 > 100 µM | TK-10 > 100 µM | NCI-H522 > 100 µM | COLO 205 > 100 µM | NCI/ADR-RES > 100 µM | SK-MEL-5 > 100 µM | 786-0 > 100 µM | NCI-H23 > 100 µM | EKVX > 100 µM | OVCAR-4 78.9 µM
> 100 µM: HCT-15

From ChEMBL document CHEMBL1201862, “PubChem BioAssay data set” (2004)
